Data taken from ChEMBL document CHEMBL5303304, “EUbOPEN Chemogenomics Library - IncuCyte” (2023).

Key:
Type in all cases: toxicity, cell-based
U2OS = assay: Incucyte cell viability with U2OS; conditions: human, 10 µM, compound concentration 10 uM
HEK-293T = assay: Incucyte cell viability with HEK293T; conditions: human, 10 µM, compound concentration 10 uM
Fibroblast = assay: Incucyte cell viability with human fibroblast; conditions: 10 µM, compound concentration 10 uM
Note: unitless GR value; below 1 slowed growth and below 0 cell loss.

CN1CCC[C@H]1c1cccnc1 [NICOTINE]
Growth Rate (U2OS; 0 h, replicate number 1): -0.33
Growth Rate (U2OS; 0 h, replicate number 2): -1
Growth Rate (U2OS; 6 h, replicate number 1): 0.16
Growth Rate (U2OS; 6 h, replicate number 2): 0.24
Growth Rate (U2OS; 12 h, replicate number 2): 0.66
Growth Rate (U2OS; 18 h, replicate number 2): 0.77
Growth Rate (U2OS; 24 h, replicate number 2): 0.86
Growth Rate (HEK-293T; 0 h, replicate number 1): 0.69
Growth Rate (HEK-293T; 6 h, replicate number 1): 0.4
Growth Rate (HEK-293T; 6 h, replicate number 2): 0.38
Growth Rate (HEK-293T; 12 h, replicate number 1): 0.64
Growth Rate (HEK-293T; 12 h, replicate number 2): 0.75
Growth Rate (HEK-293T; 18 h, replicate number 1): 0.99
Growth Rate (HEK-293T; 18 h, replicate number 2): 0.76
Growth Rate (HEK-293T; 24 h, replicate number 1): 0.93
Growth Rate (HEK-293T; 24 h, replicate number 2): 0.85
Growth Rate (Fibroblast; 0 h, replicate number 2): -0.9
Growth Rate (Fibroblast; 6 h, replicate number 2): -0.93

COC(=O)c1ccc2c(c1)NC(=O)/C2=C(\Nc1ccc(N(C)C(=O)CN2CCN(C)CC2)cc1)c1ccccc1 [NINTEDANIB]
Growth Rate (U2OS; 0 h, replicate number 1): 0.64
Growth Rate (U2OS; 0 h, replicate number 2): 0.08
Growth Rate (U2OS; 6 h, replicate number 1): -0.05
Growth Rate (U2OS; 18 h, replicate number 1): 0.97
Growth Rate (U2OS; 24 h, replicate number 2): 0.99
Growth Rate (HEK-293T; 6 h, replicate number 1): -0.42
Growth Rate (HEK-293T; 12 h, replicate number 1): 0.57
Growth Rate (Fibroblast; 0 h, replicate number 1): 0.43
Growth Rate (Fibroblast; 0 h, replicate number 2): -0.14
Growth Rate (Fibroblast; 24 h, replicate number 1): 0.4

CCOC(=O)C1=C(C)NC(C)=C(C(=O)OC)C1c1cccc([N+](=O)[O-])c1 (centres undefined) [NITRENDIPINE]
Growth Rate (U2OS; 0 h, replicate number 1): 0.22
Growth Rate (U2OS; 0 h, replicate number 2): -0.99
Growth Rate (U2OS; 6 h, replicate number 1): 0.47
Growth Rate (U2OS; 6 h, replicate number 2): 0.51
Growth Rate (U2OS; 12 h, replicate number 1): 0.89
Growth Rate (U2OS; 12 h, replicate number 2): 0.71
Growth Rate (U2OS; 18 h, replicate number 2): 0.86
Growth Rate (U2OS; 24 h, replicate number 1): 0.91
Growth Rate (U2OS; 24 h, replicate number 2): 0.9
Growth Rate (HEK-293T; 6 h, replicate number 1): 0.11
Growth Rate (HEK-293T; 6 h, replicate number 2): -0.36
Growth Rate (HEK-293T; 12 h, replicate number 2): 0.63
Growth Rate (HEK-293T; 18 h, replicate number 2): 0.99
Growth Rate (HEK-293T; 24 h, replicate number 2): 0.95
Growth Rate (Fibroblast; 0 h, replicate number 1): -0.46
Growth Rate (Fibroblast; 0 h, replicate number 2): -0.98
Growth Rate (Fibroblast; 18 h, replicate number 1): -0.02
Growth Rate (Fibroblast; 24 h, replicate number 2): 0.95

CC(C)(O)[C@H]1CC[C@H](Nc2ccc3ncc(-c4cccc(C(F)(F)F)c4)n3n2)CC1 [NUVISERTIB]
Growth Rate (U2OS; 0 h, replicate number 1): -0.52
Growth Rate (U2OS; 6 h, replicate number 1): 0.88
Growth Rate (U2OS; 6 h, replicate number 2): 0.42
Growth Rate (U2OS; 12 h, replicate number 1): 0.46
Growth Rate (U2OS; 12 h, replicate number 2): 0.24
Growth Rate (U2OS; 18 h, replicate number 1): 0.38
Growth Rate (U2OS; 18 h, replicate number 2): 0.15
Growth Rate (U2OS; 24 h, replicate number 1): 0.32
Growth Rate (U2OS; 24 h, replicate number 2): 0.08
Growth Rate (HEK-293T; 0 h, replicate number 2): -0.24
Growth Rate (HEK-293T; 6 h, replicate number 1): -0.61
Growth Rate (HEK-293T; 6 h, replicate number 2): -0.3
Growth Rate (HEK-293T; 12 h, replicate number 1): -0.5
Growth Rate (HEK-293T; 12 h, replicate number 2): -0.3
Growth Rate (HEK-293T; 18 h, replicate number 1): -0.39
Growth Rate (HEK-293T; 18 h, replicate number 2): -0.12
Growth Rate (HEK-293T; 24 h, replicate number 1): -0.27
Growth Rate (HEK-293T; 24 h, replicate number 2): -0.02
Growth Rate (Fibroblast; 6 h, replicate number 1): -0.74
Growth Rate (Fibroblast; 6 h, replicate number 2): -0.83
Growth Rate (Fibroblast; 12 h, replicate number 1): -0.53
Growth Rate (Fibroblast; 12 h, replicate number 2): -0.72
Growth Rate (Fibroblast; 18 h, replicate number 1): -0.46
Growth Rate (Fibroblast; 18 h, replicate number 2): -0.6
Growth Rate (Fibroblast; 24 h, replicate number 1): -0.39
Growth Rate (Fibroblast; 24 h, replicate number 2): -0.47

CC[C@H]1[C@@H](O)[C@@H]2[C@H](CC[C@]3(C)[C@@H]([C@H](C)CCC(=O)O)CC[C@@H]23)[C@@]2(C)CC[C@@H](O)C[C@@H]12 [OBETICHOLIC ACID]
Growth Rate (U2OS; 6 h, replicate number 1): -0.88
Growth Rate (U2OS; 12 h, replicate number 1): 0.87
Growth Rate (HEK-293T; 0 h, replicate number 1): 0.42
Growth Rate (HEK-293T; 0 h, replicate number 2): -0.65
Growth Rate (HEK-293T; 6 h, replicate number 2): 0.83
Growth Rate (HEK-293T; 12 h, replicate number 2): 0.96
Growth Rate (Fibroblast; 6 h, replicate number 1): 0.39
Growth Rate (Fibroblast; 6 h, replicate number 2): 0.74
Growth Rate (Fibroblast; 12 h, replicate number 1): 0.91
Growth Rate (Fibroblast; 12 h, replicate number 2): 0.62
Growth Rate (Fibroblast; 18 h, replicate number 1): 0.82
Growth Rate (Fibroblast; 18 h, replicate number 2): 0.87
Growth Rate (Fibroblast; 24 h, replicate number 1): 0.9
Growth Rate (Fibroblast; 24 h, replicate number 2): 0.95

Cl.NCC(O)c1ccc(O)cc1 (centres undefined) [OCTOPAMINE HYDROCHLORIDE]
Growth Rate (U2OS; 0 h, replicate number 1): 0.94
Growth Rate (U2OS; 0 h, replicate number 2): -0.87
Growth Rate (U2OS; 6 h, replicate number 1): 0.64
Growth Rate (U2OS; 6 h, replicate number 2): 0.65
Growth Rate (U2OS; 12 h, replicate number 1): 0.99
Growth Rate (U2OS; 12 h, replicate number 2): 0.92
Growth Rate (U2OS; 18 h, replicate number 1): 0.83
Growth Rate (U2OS; 18 h, replicate number 2): 0.87
Growth Rate (U2OS; 24 h, replicate number 1): 0.97
Growth Rate (U2OS; 24 h, replicate number 2): 0.95
Growth Rate (HEK-293T; 0 h, replicate number 1): 0.76
Growth Rate (HEK-293T; 0 h, replicate number 2): 0.66
Growth Rate (HEK-293T; 6 h, replicate number 1): 0.45
Growth Rate (HEK-293T; 6 h, replicate number 2): 0.94
Growth Rate (Fibroblast; 6 h, replicate number 2): -0.67
Growth Rate (Fibroblast; 12 h, replicate number 2): 0.8
Growth Rate (Fibroblast; 18 h, replicate number 1): -0.19

CCCCCCCC/C=C\CCCCCCCC(=O)NCCO [OLEOYLETHANOLAMIDE]
Growth Rate (U2OS; 0 h, replicate number 1): -0.18
Growth Rate (U2OS; 0 h, replicate number 2): 0.62
Growth Rate (U2OS; 6 h, replicate number 1): 0.87
Growth Rate (U2OS; 6 h, replicate number 2): 0.54
Growth Rate (U2OS; 12 h, replicate number 1): 0.87
Growth Rate (U2OS; 12 h, replicate number 2): 0.68
Growth Rate (U2OS; 18 h, replicate number 1): 0.81
Growth Rate (U2OS; 18 h, replicate number 2): 0.74
Growth Rate (U2OS; 24 h, replicate number 1): 0.79
Growth Rate (U2OS; 24 h, replicate number 2): 0.76
Growth Rate (HEK-293T; 0 h, replicate number 1): -0.38
Growth Rate (HEK-293T; 6 h, replicate number 2): 0.43
Growth Rate (HEK-293T; 12 h, replicate number 2): 0.83
Growth Rate (HEK-293T; 18 h, replicate number 2): 0.75
Growth Rate (HEK-293T; 24 h, replicate number 2): 0.62
Growth Rate (Fibroblast; 6 h, replicate number 1): 0.19
Growth Rate (Fibroblast; 12 h, replicate number 1): 0.64
Growth Rate (Fibroblast; 12 h, replicate number 2): 0.96
Growth Rate (Fibroblast; 18 h, replicate number 1): 0.35
Growth Rate (Fibroblast; 24 h, replicate number 1): 0.78
Growth Rate (Fibroblast; 24 h, replicate number 2): 0.98
